Reference: patent publication US20260364056A1, “METHODS OF TREATMENT OF NON-PANCREATIC GASTROINTESTINAL CANCERS” (IONCTURA bv, priority 2023, published 2026)

Legend:
Caco2 cells = test: Cell viability assay (crystal violet); type: cell-based, human
Experimental: (§1) Human colorectal adenocarcinoma HT29 and Caco-2 cells, hepatocellular carcinoma HLE cells, cholangiocarcinoma RBE and KKU-M213 cells were purchased from the American […] Culture Collection (ATCC, Manassas, VA, USA). The hepatocellular carcinoma cell line HLF was purchased from JCRB Cell Bank (Japan). All cell lines were cultured in Dulbecco's Modified Eagle Medium (DMEM) supplemented with 10% foetal bovine serum (FBS), 1 mM pyruvate, 25 mM HEPES, 100 U/mL penicillin-streptomycin (all from Thermo Fisher Scientific, Waltham, MA, USA), and maintained in a humidified atmosphere at 37 °C containing 5% CO2. The medium was changed every three days. Oleoyl-LPA was purchased from Avanti Polar Lipids (Birmingham, AL).
(§2) Cells were seeded in 96-well plates at a density of 2000 cells/well in 10% FBS supplemented medium. After 24 h, medium was removed, the cells washed with PBS and cultured in the presence or absence of FBS and of different concentrations of Compound land LPA. After the time set for the experiment, the cells were fixed with a 4% PFA solution and stained with 0.02% crystal violet for 10 min. Subsequently the plates have been washed with water to remove excess dye. The cell-bound dye was redissolved in 1% SDS and the optical density was measured at λ=570 with a iMark™ Microplate Absorbance Reader (Bio-rad).
(§3) FIGS. 2A and 2B show the effect of Compound 1 on cell proliferation in the absence of FBS and in the presence of 10% FBS. […] Cells were grown in serum free culture medium or in presence of 10% FBS and incubated with increasing Compound 1 concentrations or with DMSO (control cells) for 24, 48 and 72 hours. After fixation, proliferation was assessed by crystal violet staining method. *P<0.05.
(§4) To evaluate the anti-proliferative/cytotoxic effects of Compound 1, six different cancer tumour cell lines were treated developed from cholangiocarcinoma (CCA), hepatocellular carcinoma (HCC) and colorectal cancer (CRC), with increasing concentration of the Compound 1 ranging from 10 μM up to 50 μM and at different times of incubation. After 24, 48 and 72 hours of drug treatment, attached cells were fixed and stained with crystal violet dye. This method is used to evaluate the effect of chemotherapeutics or other anti-cancer drugs on cell survival and proliferation. In the first experiments, Compound 1 was administered to cells in culture medium supplemented with 10% FBS. […] To test the hypothesis that the presence of serum, and consequently the endogenous LPA, could interfere with the Compound 1 activity, all the cancer cells were treated with Compound 1 at concentration ranging from 1 μM up to 12 μM, in the presence or absence of 10% FBS.

HLE cells [1] = test: Cell viability assay (crystal violet); type: cell-based, human
Experimental: as §1, §2, §3, §4

HT-29 cells [2] = test: Cell viability assay (crystal violet); type: cell-based, human
Experimental: as §1, §2, §3, §4

KKU-M213 cells [3] = test: Cell viability assay (crystal violet); type: cell-based, human
Experimental: as §1, §2, §3, §4

RBE cells = test: Cell viability assay (crystal violet); type: cell-based, human
Experimental: as §1, §2, §3, §4

HT-29 cells [4] = test: Wound healing assay; type: cell-based, human; details: 9 and 12 μM, serum-free
Experimental: Cells were seeded in a 12-well plate in 10% FBS medium and grown to reach a 80-90% confluence. Then, a scratch was made on the cell monolayer by using a p200 pipette tip. The plate was washed with sterile PBS to remove the debris and on the outer bottom of the plate were created markings with a tip marker, used as reference points. Each cell line was incubated with medium without FBS and containing increasing concentrations of Compound 1 (1-3-9-12 μM). Images were acquired at 0, 24 and 48 h by using a confocal microscope Nikon Eclipse Ti2 in bright field microscope and analysed with image-J. Image-J software was used to measure the scratched area. Cell migratory ability of wound-healing was assessed using the following formula: [(wound area at 0 h)−(wound area at indicated time)]/(wound area at 0 h).
(§5) Images were taken at time 0, 24 h and 48 h and cell migration into the cell-free region (outlined) was quantified.
Tumor progression is characterized by an enhanced cell motility and invasiveness. To expand upon the knowledge of the effects of Compound 1 on HLE, KKU-m213 and HT-29 cells, their migratory activity was assessed when treated with Compound 1 by using both, a wound healing and a transwell migration assay. Cells were seeded in a 12-well plate and, when a confluent monolayer was reached, an artificial gap was generated between the cells using a pipette tip. […]

HLE cells [5] = test: Transwell migration assay; type: cell-based, human; details: 12 μM, 24 h, serum-free medium in upper chamber
Experimental: (§6) Cell culture inserts with […] pores (Corning, inc.) were coated with 50 μl of a 10 mg/ml Collagen type 1 solution (Gibco). 1.5×10^4 cells were plated in the upper chamber in serum-free medium, in absence or presence of 12 μM Compound 1, while the bottom wells were filled with complete medium. The cells were allowed to migrate across the membrane for at least 16 h. After incubation, the cells were fixed with PFA 4% for 10′ and stained with 0.02% crystal violet for 10′. The excess dye was washed off with tap water and the non-migrated cells were scraped off from the upper surface of the membrane with a cotton swab. Cell migratory ability was assessed by counting the average number of cells at least 5 field at 10× magnification.
as §5
(§7) Tumor progression is characterized by an enhanced cell motility and invasiveness. To expand upon the knowledge of the effects of Compound 1 on HLE, KKU-m213 and HT-29 cells, their migratory activity was assessed when treated with Compound 1 by using both, a wound healing and a transwell migration assay. Cells were seeded in a 12-well plate and, when a confluent monolayer was reached, an artificial gap was generated between the cells using a pipette tip. The scratch closure of migrating cells was observed after […]. […] In HLE cells a 3 μM concentration of Compound 1 is already sufficient to cause a 40% inhibition of cell migration. […] (FIG. 3B).

HT-29 cells [6] = test: Transwell migration assay; type: cell-based, human; details: 12 μM, 24 h, serum-free medium in upper chamber
Experimental: as §6, §5, §7

KKU-M213 cells [7] = test: Transwell migration assay; type: cell-based, human; details: 12 μM, 24 h, serum-free medium in upper chamber
Experimental: as §6, §5, §7

ATX = details: cited from earlier work
[8] = 1 μM up to 12 μM, 10% FBS, 24, 48 and 72 h
[9] = 3 to 12 μM, absence of FBS, evident after 48 h, stronger after 72 h
[10] = 30 to 50 μM, medium with 10% FBS

## C[C@H](NC(=O)CCc1nc2cccnc2n1Cc1ccc(OC(F)(F)F)cc1)c1ccc(Cl)cc1 [Compound 1, N-[(S)-1-(4-chloro-phenyl)-ethyl]-3-[3-(4-trifluoromethoxy-benzyl)-3H-imidazo[4,5-b]pyridin-2-yl]-propionamide]
Caco2 cells; [8]
  effect on cell proliferation: generally the same as the control
Caco2 cells; [9]
  cytotoxic effect / inhibition of cell proliferation: significant (p<0.05) cytotoxic effect in a dose-dependent manner
Caco2 cells; [10]
  cytotoxic effect: significant (p<0.05) cytotoxic effect
HLE cells [1]; [8]
  effect on cell proliferation: generally the same as the control
HLE cells [1]; 9 μM, 72 h, 5% FBS
  effect of FBS on activity of Compound 1: completely abolishing the Compound 1 effect
HLE cells [1]; 9 μM, 72 h, no FBS
  cell inhibition compared to control: clear difference in the cell inhibition compared to the control
HLE cells [1]; 9 μM, 72 h, starting at 2% FBS
  effect of FBS on activity of Compound 1: significantly (p<0.05) reduced the activity of Compound 1
HLE cells [1]; [9]
  cytotoxic effect / inhibition of cell proliferation: significant (p<0.05) cytotoxic effect in a dose-dependent manner
HLE cells [1]; [10]
  cytotoxic effect: significant (p<0.05) cytotoxic effect
HT-29 cells [2]; [8]
  effect on cell proliferation: generally the same as the control
HT-29 cells [2]; 9 μM, 72 h, 5% FBS
  effect of FBS on activity of Compound 1: completely abolishing the Compound 1 effect
HT-29 cells [2]; 9 μM, 72 h, no FBS
  cell inhibition compared to control: clear difference in the cell inhibition compared to the control
HT-29 cells [2]; 9 μM, 72 h, starting at 2% FBS
  effect of FBS on activity of Compound 1: significantly (p<0.05) reduced the activity of Compound 1
HT-29 cells [2]; [9]
  cytotoxic effect / inhibition of cell proliferation: significant (p<0.05) cytotoxic effect in a dose-dependent manner
HT-29 cells [2]; [10]
  cytotoxic effect: significant (p<0.05) cytotoxic effect
KKU-M213 cells [3]; [8]
  effect on cell proliferation: generally the same as the control
KKU-M213 cells [3]; 9 μM, 72 h, 5% FBS
  effect of FBS on activity of Compound 1: completely abolishing the Compound 1 effect
KKU-M213 cells [3]; 9 μM, 72 h, no FBS
  cell inhibition compared to control: clear difference in the cell inhibition compared to the control
KKU-M213 cells [3]; 9 μM, 72 h, starting at 2% FBS
  effect of FBS on activity of Compound 1: significantly (p<0.05) reduced the activity of Compound 1
KKU-M213 cells [3]; [9]
  cytotoxic effect / inhibition of cell proliferation: significant (p<0.05) cytotoxic effect in a dose-dependent manner
KKU-M213 cells [3]; [10]
  cytotoxic effect: significant (p<0.05) cytotoxic effect
RBE cells; [8]
  effect on cell proliferation: generally the same as the control
RBE cells; [9]
  cytotoxic effect / inhibition of cell proliferation: significant (p<0.05) cytotoxic effect in a dose-dependent manner
RBE cells; [10]
  cytotoxic effect: significant (p<0.05) cytotoxic effect
HT-29 cells [4]
  inhibition of wound closure: significantly (p<0.05) inhibited wound closure
HLE cells [5]
  migratory capacity (migrated cells through the membrane): significantly inhibited migratory capacity
HT-29 cells [6]
  migratory capacity (migrated cells through the membrane): significantly inhibited migratory capacity
KKU-M213 cells [7]
  migratory capacity (migrated cells through the membrane): significantly inhibited migratory capacity
ATX
  ATX inhibition: inhibits ATX with high selectivity
